Results from PMC6017705, “Discovery of N-(Naphtho[1,2-b]Furan-5-Yl) Benzenesulfonamides as Novel Selective Inhibitors of Triple-Negative Breast Cancer (TNBC)” (Molecules : A Journal of Synthetic Chemistry and Natural …, 2018).

Experiments:
MCF-7 = test: Cell viability assay (CCK-8), MCF-7; format: cell-based, human; details: Homo sapiens; for IC50: MCF7, 72 h, non-TNBC breast cancer cell line, CCK-8, 72 h; for inhibition at 5 µg/mL: MCF7
Experimental: (§1) Four human TNBC cell lines (MDA-MB-231, MDA-MB-453, SUM-159, and BT-20), a non-TNBC breast cancer cell line (MCF-7) and a normal mammary epithelial cell line (MCF-10A) were cultured with DMEM (phenol free) supplemented with 2.5% CS-FBS and 1% L-Glu. 1.2 × 10^3 of cells were seeded into 384-well microplates and maintained for 24 h in an incubator at 37 °C in a 5% CO2, saturated humidified atmosphere. […] […] Then CCK-8 solution was added into cells and incubated for another 4 h. Absorbance was measured with a Microplate Reader at 450/600 nm. The IC50 values of the compounds on TNBC cell lines were derived using GraphPad Prism 5.0 (GraphPad Software, Inc., La Jolla, CA, USA).

SUM-159 = test: Cell viability assay (CCK-8), SUM-159; format: cell-based, human; details: for IC50 / inhibition at 5 µg/mL: Homo sapiens; for IC50: SUM159, 72 h, TNBC cell line, CCK-8, 72 h, 0.156 to 40 μM; for inhibition at 5 µg/mL: SUM159
Experimental: as §1

MDA-MB-231 = test: Cell viability assay (CCK-8), MDA-MB-231; format: cell-based, human; details: for IC50 / inhibition at 5 µg/mL: Homo sapiens; for IC50: MDA-MB-231, 72 h, TNBC cell line, CCK-8, 72 h, 0.156 to 40 μM; for inhibition at 5 µg/mL: MDA-MB-231
Experimental: as §1

MDA-MB-453 = test: Cell viability assay (CCK-8), MDA-MB-453; format: cell-based; details: Homo sapiens, TNBC cell line, CCK-8, 72 h, 0.156 to 40 μM
Experimental: (§2) Four human TNBC cell lines (MDA-MB-231, MDA-MB-453, SUM-159, and BT-20), a non-TNBC breast cancer cell line (MCF-7) and a normal mammary epithelial cell line (MCF-10A) were cultured with DMEM (phenol free) supplemented with 2.5% CS-FBS and 1% L-Glu. 1.2 × 10^3 of cells were seeded into 384-well microplates and maintained for 24 h in an incubator at 37 °C in a 5% CO2, saturated humidified atmosphere. Different compounds were added into cells with 9 concentrations from 0.156 to 40 μM for 72 h. […] Then CCK-8 solution was added into cells and incubated for another 4 h. Absorbance was measured with a Microplate Reader at 450/600 nm. The IC50 values of the compounds on TNBC cell lines were derived using GraphPad Prism 5.0 (GraphPad Software, Inc., La Jolla, CA, USA).

BT-20 = test: Cell viability assay (CCK-8), BT-20; format: cell-based; details: Homo sapiens, TNBC cell line, CCK-8, 72 h, 0.156 to 40 μM
Experimental: as §2

| IC50 (MCF-7) | IC50 (MDA-MB-231) | IC50 (MDA-MB-453) | IC50 (BT-20) | Structure (SMILES) | growth-inhibitory effect on SUM-159 (in words) (SUM-159) | IC50 (SUM-159) | growth-inhibitory effect on MDA-MB-231 (in words) (MDA-MB-231) | inhibition at 5 µg/mL (MCF-7) | inhibition at 5 µg/mL (SUM-159) | inhibition at 5 µg/mL (MDA-MB-231) |
| --- | --- | --- | --- | --- | --- | --- | --- | --- | --- | --- |
| 1.45 µM | ~20 µM |  |  | Cc1sc(N)c2c(=O)oc3c4ccccc4ccc3c12 [Compound B09] | almost no growth-inhibitory effect | > 40 µM | almost no growth-inhibitory effect |  |  |  |
|  |  |  |  | COC(=O)c1c(C)oc2c1cc(NS(=O)(=O)c1ccc3ccccc3c1)c1ccccc12 [Compound 3-7] |  |  |  | -4.73% | 0.085% | 0.431% |
|  |  |  |  | COC(=O)c1c(C)oc2c1cc(NS(=O)(=O)c1c(C)cc(C)cc1C)c1ccccc12 [Compound 3-38] |  |  |  | 14.8% | 1.35% | 50.6% |
|  | 5.2 µM |  |  | COC(=O)c1c(C)oc2c1cc(NS(=O)(=O)c1ccc(F)cc1C)c1ccccc12 [Compound 3-18] |  | 24.2 µM |  | 33.2% | 51.4% | 59.4% |
|  | > 40 µM |  |  | CCCc1oc2c(cc(NS(=O)(=O)c3ccc(OC)cc3)c3ccccc32)c1C(=O)OCC [Compound 3-28] |  | 14.4 µM |  | 33.4% | 46% | 61.9% |
|  |  |  |  | CCCc1oc2c(cc(NS(=O)(=O)c3ccc(C(=O)O)cc3)c3ccccc32)c1C(=O)OCC [Compound 3-40] |  |  |  | 2.52% | 0% | 12.5% |
|  |  |  |  | Cc1cc(F)ccc1S(=O)(=O)Nc1cc2c(C(=O)O)c(C)oc2c2ccccc12 [Compound 3-19] |  |  |  | 16.3% | 0.38% | 19.3% |
|  |  |  |  | CCOC(=O)c1c(C)oc2c1cc(NS(=O)(=O)c1ccc(CC)cc1)c1ccccc12 [Compound 3-11] |  |  |  | 13% | 0.175% | 41.1% |
|  |  |  |  | COC(=O)c1c(C)oc2c1cc(NS(=O)(=O)c1ccccc1)c1ccccc12 [Compound 3-30] |  |  |  | 29.3% | 0.862% | 50.9% |
| > 40 µM | 3.95 µM | 3.65 µM | > 40 µM | CC(C)c1ccc(S(=O)(=O)Nc2cc(SCC(=O)O)c(O)c3ccccc23)cc1 [Compound 2-7] |  | > 40 µM |  |  |  |  |
|  |  |  |  | CCc1ccc(S(=O)(=O)Nc2cc3c(C(=O)O)c(C)oc3c3ccccc23)cc1 [Compound 3-8] |  |  |  | -6.71% | 0.221% | -1.13% |
| > 40 µM | > 40 µM | > 40 µM | > 40 µM | COc1ccc(-c2oc3c(CCC(C)(C)O)c(O)cc(O)c3c(=O)c2O)cc1 [IC-163, reference compound] |  | > 40 µM |  |  |  |  |
|  |  |  |  | COC(=O)c1c(C)oc2c1cc(NS(=O)(=O)c1ccc(Cl)cc1)c1ccccc12 [Compound 3-33] |  |  |  | 2.82% | -0.507% | 32.8% |
|  |  |  |  | Cc1oc2c(cc(NS(=O)(=O)c3ccccc3)c3ccccc32)c1C(=O)OCc1ccccc1 [Compound 3-26] |  |  |  | 25.6% | 1.58% | 51% |
|  |  |  |  | COC(=O)c1c(C)oc2c1cc(NS(=O)(=O)c1ccc(Br)cc1)c1ccccc12 [Compound 3-29] |  |  |  | 14.5% | 1.32% | 45% |
|  |  |  |  | CCOC(=O)c1c(C)oc2c1cc(NS(=O)(=O)c1c(C)cc(C)cc1C)c1ccccc12 [Compound 3-35] |  |  |  | 24.5% | 0.352% | 33.9% |
|  |  |  |  | COC(=O)c1c(C)oc2c1cc(NS(=O)(=O)c1ccc(F)cc1)c1ccccc12 [Compound 3-10] |  |  |  | 34.5% | 35.5% | 64.5% |
|  |  |  |  | CCOC(=O)c1c(C)oc2c1cc(NS(=O)(=O)c1cc(C)c(C)cc1C)c1ccccc12 [Compound 3-2] |  |  |  | 17.7% | -0.884% | 24.3% |
|  |  |  |  | COC(=O)c1c(C)oc2c1cc(NS(=O)(=O)c1cc(C)ccc1C)c1ccccc12 [Compound 3-15] |  |  |  | 18.5% | 0.037% | 45.6% |
|  |  |  |  | CCOC(=O)c1c(-c2ccccc2)oc2c1cc(NS(=O)(=O)c1ccc(CC)cc1)c1ccccc12 [Compound 3-22] |  |  |  | 2.24% | -0.556% | 53.6% |
